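Assay format: 96-well plates, 48-hour exposure. At the TGI there is no net growth.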
Tests used:
Assay in all cases: NCI tumour cell line growth inhibition, 48 h
786-0 renal = tested on: 786-0 renal
A498 renal = tested on: A498 renal
A549 NSCLC = tested on: A549 NSCLC
ACHN renal = tested on: ACHN renal
BT-549 breast = tested on: BT-549 breast
CAKI-1 renal = tested on: CAKI-1 renal
CCRF-CEM leukemia = tested on: CCRF-CEM leukemia
COLO 205 colon = tested on: COLO 205 colon
DU-145 prostate = tested on: DU-145 prostate
EKVX NSCLC = tested on: EKVX NSCLC
HCC-2998 colon = tested on: HCC-2998 colon
HCT-116 colon = tested on: HCT-116 colon
HCT-15 colon = tested on: HCT-15 colon
HOP-62 NSCLC = tested on: HOP-62 NSCLC
HOP-92 NSCLC = tested on: HOP-92 NSCLC
HS 578T breast = tested on: HS 578T breast
HT29 colon = tested on: HT29 colon
IGROV1 ovarian = tested on: IGROV1 ovarian
K-562 leukemia = tested on: K-562 leukemia
KM12 colon = tested on: KM12 colon
LOX IMVI melanoma = tested on: LOX IMVI melanoma
M14 melanoma = tested on: M14 melanoma
MALME-3M melanoma = tested on: MALME-3M melanoma
MCF7 breast = tested on: MCF7 breast
MDA-MB-231 breast = tested on: MDA-MB-231 breast
MDA-MB-435 = tested on: MDA-MB-435
MDA-N = tested on: MDA-N
MOLT-4 leukemia = tested on: MOLT-4 leukemia
NCI-H226 lung = tested on: NCI-H226 lung
NCI-H23 lung = tested on: NCI-H23 lung
NCI-H460 lung = tested on: NCI-H460 lung
NCI/ADR-RES ovarian = tested on: NCI/ADR-RES ovarian
OVCAR-3 ovarian = tested on: OVCAR-3 ovarian
OVCAR-4 ovarian = tested on: OVCAR-4 ovarian
OVCAR-5 ovarian = tested on: OVCAR-5 ovarian
OVCAR-8 ovarian = tested on: OVCAR-8 ovarian
PC-3 prostate = tested on: PC-3 prostate
RPMI-8226 leukemia = tested on: RPMI-8226 leukemia
RXF 393 renal = tested on: RXF 393 renal
SF-268 CNS = tested on: SF-268 CNS
SF-295 CNS = tested on: SF-295 CNS
SF-539 CNS = tested on: SF-539 CNS
SK-MEL-2 melanoma = tested on: SK-MEL-2 melanoma
SK-MEL-28 melanoma = tested on: SK-MEL-28 melanoma
SK-MEL-5 melanoma = tested on: SK-MEL-5 melanoma
SK-OV-3 ovarian = tested on: SK-OV-3 ovarian
SN12C renal = tested on: SN12C renal
SNB-19 CNS = tested on: SNB-19 CNS
SNB-75 CNS = tested on: SNB-75 CNS
SR leukemia = tested on: SR leukemia
SW-620 colon = tested on: SW-620 colon
T-47D breast = tested on: T-47D breast
TK-10 renal = tested on: TK-10 renal
U251 CNS = tested on: U251 CNS
UACC-257 melanoma = tested on: UACC-257 melanoma
UACC-62 melanoma = tested on: UACC-62 melanoma
UO-31 renal = tested on: UO-31 renal
HL-60(TB) leukemia = tested on: HL-60(TB) leukemia
NCI-H522 lung = tested on: NCI-H522 lung

COC(=O)C(N)CCCC(N)C(=O)NC(C)C(=O)NC(CCC(=O)NCCNCCNc1c2ccccc2nc2cccc([N+](=O)[O-])c12)C(N)=O (stereo not given)
TGI (786-0 renal): > 31 µM | TGI (A498 renal): 40.3 µM | TGI (A549 NSCLC): > 43.6 µM | TGI (ACHN renal): > 61.1 µM | TGI (BT-549 breast): 38.5 µM | TGI (CAKI-1 renal): > 100 µM | TGI (CCRF-CEM leukemia): > 50.9 µM | TGI (COLO 205 colon): 20.4 µM | TGI (DU-145 prostate): > 66.1 µM | TGI (EKVX NSCLC): 32.9 µM | TGI (HCC-2998 colon): 34.2 µM | TGI (HCT-116 colon): 24.5 µM | TGI (HCT-15 colon): 48.6 µM | TGI (HOP-62 NSCLC): 53.7 µM | TGI (HOP-92 NSCLC): 23.8 µM | TGI (HS 578T breast): 38.8 µM | TGI (HT29 colon): 47.7 µM | TGI (IGROV1 ovarian): > 100 µM | TGI (K-562 leukemia): 20.7 µM | TGI (KM12 colon): 67.2 µM | TGI (LOX IMVI melanoma): 43 µM | TGI (M14 melanoma): 26.2 µM | TGI (MALME-3M melanoma): 24.8 µM | TGI (MCF7 breast): 58.5 µM | TGI (MDA-MB-231 breast): 53.1 µM | TGI (MDA-MB-435): 20.1 µM | TGI (MDA-N): 28.1 µM | TGI (MOLT-4 leukemia): > 100 µM | TGI (NCI-H226 lung): 39.4 µM | TGI (NCI-H23 lung): 9.91 µM | TGI (NCI-H460 lung): 55 µM | TGI (NCI/ADR-RES ovarian): > 100 µM | TGI (OVCAR-3 ovarian): 47.7 µM | TGI (OVCAR-4 ovarian): 8.05 µM | TGI (OVCAR-5 ovarian): > 100 µM | TGI (OVCAR-8 ovarian): 42.3 µM | TGI (PC-3 prostate): 29.5 µM | TGI (RPMI-8226 leukemia): 34.6 µM | TGI (RXF 393 renal): 28.5 µM | TGI (SF-268 CNS): 10.7 µM | TGI (SF-295 CNS): > 100 µM | TGI (SF-539 CNS): 14.2 µM | TGI (SK-MEL-2 melanoma): 30.6 µM | TGI (SK-MEL-28 melanoma): 31.1 µM | TGI (SK-MEL-5 melanoma): 18.1 µM | TGI (SK-OV-3 ovarian): > 100 µM | TGI (SN12C renal): 39.5 µM | TGI (SNB-19 CNS): > 67.7 µM | TGI (SNB-75 CNS): 26.1 µM | TGI (SR leukemia): > 100 µM | TGI (SW-620 colon): 47.3 µM | TGI (T-47D breast): 45.8 µM | TGI (TK-10 renal): > 94.3 µM | TGI (U251 CNS): > 41.1 µM | TGI (UACC-257 melanoma): 70.5 µM | TGI (UACC-62 melanoma): 27.1 µM | TGI (UO-31 renal): 59.4 µM

NC1=CN(CCCO)C2=N/C(=C\c3ccccc3)C(=O)N12
TGI (786-0 renal): > 100 µM | TGI (A498 renal): > 100 µM | TGI (A549 NSCLC): > 100 µM | TGI (ACHN renal): > 100 µM | TGI (BT-549 breast): > 100 µM | TGI (CAKI-1 renal): > 100 µM | TGI (CCRF-CEM leukemia): > 100 µM | TGI (COLO 205 colon): > 100 µM | TGI (DU-145 prostate): > 100 µM | TGI (EKVX NSCLC): > 100 µM | TGI (HCC-2998 colon): > 100 µM | TGI (HCT-116 colon): > 100 µM | TGI (HCT-15 colon): > 100 µM | TGI (HL-60(TB) leukemia): > 100 µM | TGI (HOP-62 NSCLC): > 100 µM | TGI (HOP-92 NSCLC): > 100 µM | TGI (HS 578T breast): > 100 µM | TGI (HT29 colon): > 100 µM | TGI (IGROV1 ovarian): > 100 µM | TGI (K-562 leukemia): > 100 µM | TGI (KM12 colon): > 100 µM | TGI (LOX IMVI melanoma): > 100 µM | TGI (M14 melanoma): > 100 µM | TGI (MALME-3M melanoma): > 100 µM | TGI (MCF7 breast): > 100 µM | TGI (MDA-MB-231 breast): > 100 µM | TGI (MDA-MB-435): > 100 µM | TGI (MDA-N): > 100 µM | TGI (MOLT-4 leukemia): > 100 µM | TGI (NCI-H226 lung): > 100 µM | TGI (NCI-H23 lung): > 100 µM | TGI (NCI-H460 lung): > 100 µM | TGI (NCI-H522 lung): > 100 µM | TGI (NCI/ADR-RES ovarian): > 100 µM | TGI (OVCAR-3 ovarian): > 100 µM | TGI (OVCAR-4 ovarian): > 100 µM | TGI (OVCAR-5 ovarian): > 100 µM | TGI (OVCAR-8 ovarian): > 100 µM | TGI (PC-3 prostate): > 100 µM | TGI (RPMI-8226 leukemia): > 100 µM | TGI (RXF 393 renal): > 100 µM | TGI (SF-268 CNS): > 100 µM | TGI (SF-295 CNS): > 100 µM | TGI (SF-539 CNS): > 100 µM | TGI (SK-MEL-2 melanoma): > 100 µM | TGI (SK-MEL-28 melanoma): > 100 µM | TGI (SK-MEL-5 melanoma): > 100 µM | TGI (SK-OV-3 ovarian): > 100 µM | TGI (SN12C renal): > 100 µM | TGI (SNB-19 CNS): > 100 µM | TGI (SNB-75 CNS): > 100 µM | TGI (SW-620 colon): > 100 µM | TGI (T-47D breast): > 100 µM | TGI (TK-10 renal): > 100 µM | TGI (U251 CNS): > 100 µM | TGI (UACC-257 melanoma): > 100 µM | TGI (UACC-62 melanoma): > 100 µM | TGI (UO-31 renal): > 100 µM
